What all share (assay type): cell-based
For one assay, the target named is T1, human 5-HT2A receptor (Homo sapiens, UniProt P28223).
T1 construct: host or cells: CHO-K1
In words: 5HT2A Antagonism Assay (Euroscreen FAST-05051), IP-One HTRF. A digest of the protocol:
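CHO-K1 cells expressing receptor, 20,000/well, co-incubated with test compound and reference agonist at its EC80 for 60 min at 37 °C. IP1 accumulation read by HTRF after ~1 h detection at room temperature. Compounds tested in duplicate at 0.3–10,000 nM.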
(In general: Time-resolved FRET reads energy transfer from a long-lived donor to a nearby acceptor.)

The next assay has as its target T2, human TAAR1 receptors (Homo sapiens, UniProt Q96RJ0).
T2 construct: host or cells: CHO-K1
T2 sequence (Q96RJ0 1-339): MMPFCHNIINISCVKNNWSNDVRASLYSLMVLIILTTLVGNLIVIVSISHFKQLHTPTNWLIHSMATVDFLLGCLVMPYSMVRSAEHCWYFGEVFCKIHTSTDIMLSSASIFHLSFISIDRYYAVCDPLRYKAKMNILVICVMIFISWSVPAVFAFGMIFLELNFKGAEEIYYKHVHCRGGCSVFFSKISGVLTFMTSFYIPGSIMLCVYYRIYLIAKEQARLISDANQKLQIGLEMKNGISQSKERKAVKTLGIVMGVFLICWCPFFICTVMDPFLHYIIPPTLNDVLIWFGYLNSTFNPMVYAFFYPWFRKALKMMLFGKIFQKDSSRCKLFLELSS
In words: TAAR1 Agonism Assay: cAMP HTRF assay for Gs coupled receptor TAAR1 (Euroscreen FAST-0987C). The conditions noted are these: CHO-K1 cells expressing human TAAR1, cAMP HTRF. A digest of the protocol: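 cAMP accumulation detected by HTRF fluorescence ratio, reagents added in lysis buffer and incubated 1 h at about room temperature. Beforehand, cells (about 3,000 per well) sat with test compound at ten concentrations from 0.3 to 10,000 nM in duplicate for roughly 30 min at about room temperature; tyramine dose-response run alongside.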

In another assay the target is T3, human 5-HT7 receptor (Homo sapiens, UniProt P34969).
T3 construct: host or cells: CHO-K1
Description: 5HT7 Antagonism Assay (Euroscreen FAST-0499C), cAMP HTRF. The conditions noted are these: CHO-K1 cells expressing human 5-HT7, reference agonist at EC80, cAMP HTRF. The gist of the method: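 CHO-K1 cells expressing human 5-HT7, 3000 per well in Krebs-Ringer HEPES with 1 mM IBMX, were exposed for 30 minutes at room temperature to compound plus reference agonist at its EC80. cAMP was read by HTRF after 1 hour; compounds were tested in duplicate from 0.3 to 10,000 nM.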

The mark [1] stands for this setting: 5-HT2A (IC50), CHO-K1 cells expressing human 5-HT2A, reference agonist at EC80, IP-One.
[2] abbreviates: read-out: 5-HT2A (IC50), CHO-K1 cells expressing human 5-HT2A, reference agonist at EC80, IP-One.

SMILES strings stand for the structures. Like-named read-outs stand apart in the source and are kept apart here.

Broadly, the IC50 is the point on the concentration scale where inhibition reaches its midpoint. The EC50 is the concentration needed to bring the measured effect to its halfway point. Read a high EC50 as weaker potency.

T1 sequence (P28223 whole entry): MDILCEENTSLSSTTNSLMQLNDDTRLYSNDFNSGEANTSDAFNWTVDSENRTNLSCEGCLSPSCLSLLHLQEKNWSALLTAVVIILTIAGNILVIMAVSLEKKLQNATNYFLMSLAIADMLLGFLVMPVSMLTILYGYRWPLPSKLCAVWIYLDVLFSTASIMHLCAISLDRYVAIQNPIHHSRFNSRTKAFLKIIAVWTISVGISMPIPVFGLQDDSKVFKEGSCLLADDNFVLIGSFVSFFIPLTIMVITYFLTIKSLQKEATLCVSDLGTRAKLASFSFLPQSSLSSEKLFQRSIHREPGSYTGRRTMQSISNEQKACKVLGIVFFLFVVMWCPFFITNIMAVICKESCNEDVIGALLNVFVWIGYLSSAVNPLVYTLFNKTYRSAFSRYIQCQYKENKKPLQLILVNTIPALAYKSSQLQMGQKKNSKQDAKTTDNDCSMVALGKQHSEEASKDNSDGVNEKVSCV
T3 sequence (P34969 whole entry): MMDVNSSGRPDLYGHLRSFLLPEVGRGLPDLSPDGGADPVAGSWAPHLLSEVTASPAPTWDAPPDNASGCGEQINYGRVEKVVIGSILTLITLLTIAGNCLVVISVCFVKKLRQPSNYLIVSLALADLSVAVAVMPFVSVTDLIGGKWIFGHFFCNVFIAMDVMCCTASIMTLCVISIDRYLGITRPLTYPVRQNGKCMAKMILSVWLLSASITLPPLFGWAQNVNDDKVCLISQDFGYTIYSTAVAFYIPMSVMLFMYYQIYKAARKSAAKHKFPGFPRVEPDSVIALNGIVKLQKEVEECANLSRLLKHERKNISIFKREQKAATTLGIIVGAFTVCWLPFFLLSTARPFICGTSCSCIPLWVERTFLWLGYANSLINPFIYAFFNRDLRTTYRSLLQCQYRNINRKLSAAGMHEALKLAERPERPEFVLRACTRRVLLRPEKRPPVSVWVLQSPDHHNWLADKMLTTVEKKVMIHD

On to `NCC1Cc2c(F)cccc2Oc2ccccc21` (single isomer, unassigned) [Compound 80, (R*)-(1-fluoro-10,11-dihydrodibenzo[b,f]oxepin-10-yl)methanamine], for which the IC50 was less than 1000 nM on human 5-HT2A receptor (setting [1]) and not below 10000 nM at human 5-HT7 receptor. The compound also gave an EC50 on human TAAR1 receptors of less than 1000 nM.
`NCC1Cc2c(F)cccc2Oc2ccccc21` (single isomer, unassigned) [Compound 81, (S*)-(1-fluoro-10,11-dihydrodibenzo[b,f]oxepin-10-yl)methanamine]: the figures for the IC50 on human 5-HT2A receptor (setting [2]) and at human 5-HT7 receptor were less than 1000 nM and not below 10000 nM, respectively. At human TAAR1 receptors, this compound had an EC50 of less than 1000 nM.
Turning to `CNCC1Cc2c(F)cccc2Oc2ccccc21` (single isomer, unassigned) [Compound 82, (R*)-1-(1-fluoro-10,11-dihydrodibenzo[b,f]oxepin-10-yl)-N-methylmethanamine], the IC50 is less than 1000 nM at human 5-HT2A receptor (setting [1]) and 1000 to 10000 nM on human 5-HT7 receptor. The EC50 on human TAAR1 receptors was less than 1000 nM.
Regarding `CNCC1Cc2c(F)cccc2Oc2ccccc21` (single isomer, unassigned) [Compound 83, (S*)-1-(1-fluoro-10,11-dihydrodibenzo[b,f]oxepin-10-yl)-N-methylmethanamine], the half-inhibitory concentration (IC50) at human 5-HT2A receptor (setting [2]) was less than 1000 nM; at human 5-HT7 receptor it was 1000 to 10000 nM. Further, the EC50 on human TAAR1 receptors is more than 10000 nM.
Regarding `NCC1Cc2cccc(F)c2Oc2ccccc21` (single isomer, unassigned) [Compound 84, (R*)-(4-fluoro-10,11-dihydrodibenzo[b,f]oxepin-10-yl)methanamine], the IC50 on human 5-HT2A receptor (setting [1]) is more than 10000 nM; on human 5-HT7 receptor, not below 10000 nM. At human TAAR1 receptors, this compound had an EC50 of less than 1000 nM.
As to `NCC1Cc2cccc(F)c2Oc2ccccc21` (single isomer, unassigned) [Compound 85, (S*)-(4-fluoro-10,11-dihydrodibenzo[b,f]oxepin-10-yl)methanamine], the IC50 is 1000 to 10000 nM on human 5-HT2A receptor (setting [1]) and not below 10000 nM on human 5-HT7 receptor. The EC50 on human TAAR1 receptors is less than 1000 nM.
Regarding `CNCC1Cc2cccc(F)c2Oc2ccccc21` (single isomer, unassigned) [Compound 86, (R*)-(4-fluoro-10,11-dihydrodibenzo[b,f]oxepin-10-yl)-N-methylmethanamine], the IC50 on human 5-HT2A receptor (setting [1]) is less than 1000 nM; at human 5-HT7 receptor, 1000 to 10000 nM. The EC50 on human TAAR1 receptors was less than 1000 nM.
Take `CNCC1Cc2cccc(F)c2Oc2ccccc21` (single isomer, unassigned) [Compound 87, (S*)-(4-fluoro-10,11-dihydrodibenzo[b,f]oxepin-10-yl)-N-methylmethanamine]: the figures for the IC50 on human 5-HT2A receptor (setting [2]) and on human 5-HT7 receptor were less than 1000 nM and 1000 to 10000 nM, respectively. Also, the EC50 at human TAAR1 receptors is less than 1000 nM.
With `NCC1Cc2ccc(F)cc2Oc2ccccc21` (single isomer, unassigned) [Compound 89, (S*)-(3-fluoro-10,11-dihydrodibenzo[b,f]oxepin-10-yl)methanamine], the IC50 was less than 1000 nM at human 5-HT2A receptor (setting [1]) and not below 10000 nM at human 5-HT7 receptor. In addition, on human TAAR1 receptors, the EC50 was less than 1000 nM.
Consider `CNCC1Cc2ccc(F)cc2Oc2ccccc21` (single isomer, unassigned) [Compound 90, (R*)-(3-fluoro-10,11-dihydrodibenzo[b,f]oxepin-10-yl)-N-methylmethanamine], for which the values for the half-inhibitory concentration (IC50) at human 5-HT2A receptor (setting [1]) and at human 5-HT7 receptor were less than 1000 nM and 1000 to 10000 nM, respectively. Further, the EC50 at human TAAR1 receptors is more than 10000 nM.
As to `CNCC1Cc2ccc(F)cc2Oc2ccccc21` (single isomer, unassigned) [Compound 91, (S*)-(3-fluoro-10,11-dihydrodibenzo[b,f]oxepin-10-yl)-N-methylmethanamine], the IC50 at human 5-HT2A receptor (setting [2]) and on human 5-HT7 receptor was less than 1000 nM in each case. For the same compound, the EC50 at human TAAR1 receptors was less than 1000 nM.
Turning to `NCC1Cc2ccccc2Oc2ccc(F)cc21` (single isomer, unassigned) [Compound 92, (R*)-(8-fluoro-10,11-dihydrodibenzo[b,f]oxepin-10-yl)methanamine], the IC50 is less than 1000 nM at human 5-HT2A receptor (setting [1]) and not below 10000 nM on human 5-HT7 receptor. Further, the EC50 at human TAAR1 receptors was less than 1000 nM.
With `CNCC1Cc2ccccc2Oc2ccc(F)cc21` (single isomer, unassigned) [Compound 94, (R*)-(8-fluoro-10,11-dihydrodibenzo[b,f]oxepin-10-yl)-N-methylmethanamine], the values for the IC50 on human 5-HT2A receptor (setting [1]) and on human 5-HT7 receptor were less than 1000 nM and 1000 to 10000 nM, respectively. Moreover, the concentration for a half-maximal effect (EC50) on human TAAR1 receptors was less than 1000 nM.
Regarding `CNCC1Cc2ccccc2Oc2ccc(F)cc21` (single isomer, unassigned) [Compound 95, (S*)-(8-fluoro-10,11-dihydrodibenzo[b,f]oxepin-10-yl)-N-methylmethanamine], the IC50 at human 5-HT2A receptor (setting [2]) is less than 1000 nM; on human 5-HT7 receptor, 1000 to 10000 nM. The compound also displayed an EC50 at human TAAR1 receptors of 1000 to 10000 nM.
For the compound `NCC1Cc2cc(F)ccc2Oc2ccccc21` (single isomer, unassigned) [Compound 96, (R*)-(2-fluoro-10,11-dihydrodibenzo[b,f]oxepin-10-yl)methanamine], the IC50 at human 5-HT2A receptor (setting [1]) is less than 1000 nM; at human 5-HT7 receptor, not below 10000 nM. Also, the concentration giving a half-maximal response (EC50) on human TAAR1 receptors was less than 1000 nM.
Consider `CNCC1Cc2cc(F)ccc2Oc2ccccc21` (single isomer, unassigned) [Compound 98, (R*)-(2-fluoro-10,11-dihydrodibenzo[b,f]oxepin-10-yl)-N-methylmethanamine], for which the IC50 on human 5-HT2A receptor (setting [1]) is less than 1000 nM; at human 5-HT7 receptor, 1000 to 10000 nM. Besides, the EC50 at human TAAR1 receptors is less than 1000 nM.
For `NCC1Cc2ccccc2Oc2c(F)cccc21` (single isomer, unassigned) [Compound 100, (R*)-(6-fluoro-10,11-dihydrodibenzo[b,f]oxepin-10-yl)methanamine], the IC50 at human 5-HT2A receptor (setting [1]) is less than 1000 nM; at human 5-HT7 receptor, not below 10000 nM. The compound further registered an EC50 on human TAAR1 receptors of less than 1000 nM.
As to `NCC1Cc2ccccc2Oc2c(F)cccc21` (single isomer, unassigned) [Compound 101, (S*)-(6-fluoro-10,11-dihydrodibenzo[b,f]oxepin-10-yl)methanamine], the IC50 at human 5-HT2A receptor (setting [1]) was more than 10000 nM; at human 5-HT7 receptor it was not below 10000 nM. This compound displayed an EC50 on human TAAR1 receptors of less than 1000 nM.
Turning to `CNCC1Cc2ccccc2Oc2c(F)cccc21` (single isomer, unassigned) [Compound 102, (R*)-(6-fluoro-10,11-dihydrodibenzo[b,f]oxepin-10-yl)-N-methylmethanamine], the IC50 at human 5-HT2A receptor (setting [1]) is less than 1000 nM; at human 5-HT7 receptor it was not below 10000 nM. In addition, the EC50 at human TAAR1 receptors is less than 1000 nM.
Take `NCC1Cc2ccccc2Oc2cccc(F)c21` (single isomer, unassigned) [Compound 104, (R*)-(9-fluoro-10,11-dihydrodibenzo[b,f]oxepin-10-yl)methanamine]: the IC50 on human 5-HT2A receptor (setting [1]) was 1000 to 10000 nM; on human 5-HT7 receptor, not below 10000 nM. Moreover, the EC50 on human TAAR1 receptors is less than 1000 nM.
Turning to `NCC1Cc2ccccc2Oc2cccc(F)c21` (single isomer, unassigned) [Compound 105, (S*)-(9-fluoro-10,11-dihydrodibenzo[b,f]oxepin-10-yl)methanamine], the values for the IC50 at human 5-HT2A receptor (setting [1]) and on human 5-HT7 receptor were more than 10000 nM and not below 10000 nM, respectively. In addition, at human TAAR1 receptors, the EC50 fell in the range of 1000 to 10000 nM.
The corresponding values for `CNCC1Cc2ccccc2Oc2cccc(F)c21` (single isomer, unassigned) [Compound 106, (R*)-(9-fluoro-10,11-dihydrodibenzo[b,f]oxepin-10-yl)-N-methylmethanamine] are less than 1000 nM, not below 10000 nM and less than 1000 nM.
Consider `CNCC1Cc2ccccc2Oc2cccc(F)c21` (single isomer, unassigned) [Compound 107, (S*)-(9-fluoro-10,11-dihydrodibenzo[b,f]oxepin-10-yl)-N-methylmethanamine], for which the IC50 was 1000 to 10000 nM at human 5-HT2A receptor (setting [1]) and not below 10000 nM on human 5-HT7 receptor. Besides, the EC50 on human TAAR1 receptors was more than 10000 nM.
The corresponding values for `CCNCC1Cc2ccccc2Oc2cccnc21` (single isomer, unassigned) [Compound 109, (R*)-1-(10,11-dihydrobenzo-[6,7]oxepino[3,2-b]pyridin-11-yl)-N-ethylmethanamine] are 1000 to 10000 nM, not below 10000 nM and less than 1000 nM.
As to `CN(C)CC1Cc2ccccc2Oc2cccnc21` (single isomer, unassigned) [Compound 111, (R*)-1-(10,11-dihydro-benzo[6,7]oxepino[3,2-b]pyridin-11-yl)-N,N-dimethylmethanamine], the IC50 was 1000 to 10000 nM at human 5-HT2A receptor (setting [1]) and not below 10000 nM at human 5-HT7 receptor. This compound also had an EC50 at human TAAR1 receptors of less than 1000 nM.
Turning to `NCC1Cc2cc(Cl)ccc2Oc2cccnc21` (single isomer, unassigned) [Compound 120, (S*)-(8-chloro-10,11-dihydrobenzo[6,7]oxepino[3,2-b]pyridin-11-yl)methanamine], the IC50 at human 5-HT2A receptor (setting [1]) was 1000 to 10000 nM; at human 5-HT7 receptor it was not below 10000 nM. The EC50 at human TAAR1 receptors was less than 1000 nM.

(Values after patent US20240245658A1, “TAAR1 AND SEROTONIN MODULATORS, AND PHARMACEUTICAL COMPOSITIONS, AND METHODS OF USE THEREOF” (Sunovion Pharmaceuticals Inc., priority 2021, published 2024).)
